Experimental data taken from ChEMBL document CHEMBL1138864, “Synthesis of novel caspase inhibitors for characterization of the active caspase proteome in vitro and in vivo” (J Med Chem, 2006).
pKi: −log10 of the molar value.

Legend:
Caspase-1 = target: T1, Caspase-1 (Homo sapiens, UniProt P29466); experiment: Inhibition of human caspase 1
T1 sequence (P29466 whole entry): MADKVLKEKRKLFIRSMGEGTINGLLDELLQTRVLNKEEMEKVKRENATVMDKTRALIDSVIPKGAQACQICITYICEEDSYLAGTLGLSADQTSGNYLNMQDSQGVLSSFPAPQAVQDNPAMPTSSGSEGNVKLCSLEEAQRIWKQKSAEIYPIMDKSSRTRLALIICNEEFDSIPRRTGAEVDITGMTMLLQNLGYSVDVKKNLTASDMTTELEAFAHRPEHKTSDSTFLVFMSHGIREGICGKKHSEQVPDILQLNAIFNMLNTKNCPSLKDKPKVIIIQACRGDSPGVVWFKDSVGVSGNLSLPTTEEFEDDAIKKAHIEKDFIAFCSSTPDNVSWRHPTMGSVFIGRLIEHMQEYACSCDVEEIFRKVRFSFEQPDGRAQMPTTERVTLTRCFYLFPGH

Caspase-2 = target: T2, Caspase-2 (Homo sapiens, UniProt P42575); experiment: Inhibition of human caspase 2
T2 sequence (P42575 whole entry): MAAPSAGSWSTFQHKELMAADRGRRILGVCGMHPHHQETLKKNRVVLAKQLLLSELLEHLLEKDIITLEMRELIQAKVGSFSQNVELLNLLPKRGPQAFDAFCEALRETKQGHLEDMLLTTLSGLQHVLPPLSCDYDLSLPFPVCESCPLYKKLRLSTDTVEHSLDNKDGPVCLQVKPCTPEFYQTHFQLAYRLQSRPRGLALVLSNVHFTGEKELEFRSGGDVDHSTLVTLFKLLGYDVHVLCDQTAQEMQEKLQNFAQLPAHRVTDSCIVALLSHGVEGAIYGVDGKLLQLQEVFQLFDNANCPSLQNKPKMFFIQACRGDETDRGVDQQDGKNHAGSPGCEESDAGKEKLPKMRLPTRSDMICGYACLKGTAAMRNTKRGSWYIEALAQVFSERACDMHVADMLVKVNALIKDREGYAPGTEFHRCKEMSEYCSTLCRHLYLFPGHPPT

Caspase-3 = target: T3, Caspase-3 (Homo sapiens, UniProt P42574); experiment: Inhibition of human caspase 3
T3 sequence (P42574 whole entry): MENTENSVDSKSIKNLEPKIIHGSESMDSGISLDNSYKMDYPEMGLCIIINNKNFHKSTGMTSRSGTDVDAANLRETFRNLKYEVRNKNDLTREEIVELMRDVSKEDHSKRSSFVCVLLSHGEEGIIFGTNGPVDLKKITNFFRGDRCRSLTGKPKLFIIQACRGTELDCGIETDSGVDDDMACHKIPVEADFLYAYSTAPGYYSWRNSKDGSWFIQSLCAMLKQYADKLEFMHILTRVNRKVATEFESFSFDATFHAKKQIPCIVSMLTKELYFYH

Caspase-6 = target: T4, Caspase-6 (Homo sapiens, UniProt P55212); experiment: Inhibition of human caspase 6
T4 sequence (P55212 whole entry): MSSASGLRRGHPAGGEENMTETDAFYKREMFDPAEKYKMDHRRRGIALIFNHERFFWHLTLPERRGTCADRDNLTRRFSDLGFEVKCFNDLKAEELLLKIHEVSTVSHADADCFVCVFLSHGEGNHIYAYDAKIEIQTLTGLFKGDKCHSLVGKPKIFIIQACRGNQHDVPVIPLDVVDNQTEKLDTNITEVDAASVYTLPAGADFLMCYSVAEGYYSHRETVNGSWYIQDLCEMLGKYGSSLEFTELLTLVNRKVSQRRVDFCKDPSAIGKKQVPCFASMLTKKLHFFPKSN

Caspase-7 = target: T5, Caspase-7 (Homo sapiens, UniProt P55210); experiment: Inhibition of human caspase 7
T5 sequence (P55210 whole entry): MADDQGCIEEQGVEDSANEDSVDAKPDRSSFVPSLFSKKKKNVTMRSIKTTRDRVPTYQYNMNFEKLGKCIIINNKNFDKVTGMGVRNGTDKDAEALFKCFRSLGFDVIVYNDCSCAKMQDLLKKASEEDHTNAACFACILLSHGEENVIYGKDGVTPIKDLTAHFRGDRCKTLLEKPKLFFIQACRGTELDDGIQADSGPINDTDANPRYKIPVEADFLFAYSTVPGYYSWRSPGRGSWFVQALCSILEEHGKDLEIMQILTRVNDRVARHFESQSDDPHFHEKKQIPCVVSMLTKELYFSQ

Caspase-8 = Caspase-8 (Homo sapiens, UniProt Q14790); experiment: Inhibition of human caspase 8
Sequence of Caspase-8 (Q14790 217-374 limits assumed): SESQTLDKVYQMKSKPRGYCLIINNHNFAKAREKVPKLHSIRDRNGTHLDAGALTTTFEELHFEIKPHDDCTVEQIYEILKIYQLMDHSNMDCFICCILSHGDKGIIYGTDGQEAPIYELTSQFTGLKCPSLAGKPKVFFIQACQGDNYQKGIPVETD
Sequence of Caspase-8 (Q14790 385-479 limits assumed): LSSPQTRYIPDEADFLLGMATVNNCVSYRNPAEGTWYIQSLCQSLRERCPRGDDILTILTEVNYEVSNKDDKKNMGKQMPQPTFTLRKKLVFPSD

pKi (Caspase-1): 8.20 | pKi (Caspase-2): 4.54 | pKi (Caspase-3): 6.08 | pKi (Caspase-6): 3.26 | pKi (Caspase-7): 5.92 | pKi (Caspase-8): 6.27
Compound: Cc1cccc(C)c1C(=O)OCC(=O)[C@H](CC(=O)O)NC(=O)[C@H](CCCCNC(=O)CCCCCNC(=O)CCCCC1SC[C@@H]2NC(=O)N[C@H]12)NC(=O)[C@H](CCC(=O)O)NC(=O)OCc1ccccc1 (stereo partly specified)
